Data from patent publication US8962003B2, “Insect behaviour modifying compounds” (The New Zealand Institute for Plant and Food Research …, priority 2003, dated 2015).

Columns and labels:
Thrips obscuratus = conditions: Penman et al. 1982; cited from earlier work
[1] = system: Frankliniella occidentalis; experiment: Y-tube olfactometer bioassay; assay type: in vivo; conditions: female Frankliniella occidentalis
Protocol: The thrips behaviour-modifying activity of a compound may be evaluated in a glass Y-tube olfactometer following the method described by de Kogel et al. (de Kogel, W. J., Koschier, E. H. and Visser, J. H. Proc. Exper. & Appl. Entomol., N. E. V. Amsterdam, (1999) 10, 131-135.) and Koschier et al. (Koschier, E. H., De Kogel, W. J. and Visser, J. H. (2000) Jounrnal of Chemical Ecology, 26, 2643-2655).
The olfactory behaviour of thrips toward volatile compounds was evaluated in a glass Y-tube olfactometer following the method described by de Kogel et al. (de Kogel, W. J., Koschier, E. H. and Visser, J. H. Proc. Exper. & Appl. Entomol., N. E. V. Amsterdam, (1999) 10, 131-135.) and Koschler et al. (Koschier, E. H., De Kogel, W. J. and Visser, J. H. (2000) Journal of Chemical Ecology, 26, 2643-2655.). The Y-tube has two branching arms at an angle of 45° leading into a single tube, all 60 mm long, with an internal diameter of 5 mm. The arms of the Y-tube were connected to glass Wheaton Micro Kit® adapters that were in turn attached to 4 ml glass vials each containing a 1 cm^2 piece of filter paper (Whatman No. 1). The Y-tube and Wheaton apparatus were placed in a grey-box (to prevent external stimuli influencing thrips' behaviour), located in a darkened, air-conditioned room (22±3° C.). The Y-tube was placed at an inclining position of 25° between the Y-tube and horizontal plane and illuminated from above by a halogen lamp (780 lux). One microliter of the volatile compounds, either undiluted or diluted in hexane (95%, Pronalys AR), was applied to filter paper in one vial, while 1 μl of hexane was applied to filter paper held in the second vial. Air was drawn through activated charcoal before entering the Wheaton apparatus and Y-tube using a suction pump (AR Harris Co. Ltd, Christchurch) producing an airflow of 5 cm/s through each arm and 10 cm/s at the base of the Y-tube. Air was drawn through for 30 min before introducing the first thrips. Connections between the activated charcoal, Wheaton apparatus, Y-tube and suction pump consisted of silicone tubing.
An individual female Frankliniella occidentalis thrips of unknown age, that had been starved overnight, was released into the Y-tube using a small aspirator. The aspirator was made by placing a 1 ml pipette tip over the end of silicone tubing (5 mm diameter) the end of which was covered with fine mesh; the pipette tip was cut so it projected 5 mm beyond the end of the silicone tubing. A thrips was sucked up into the pipette tip, which was then placed at the base of the Y-tube. Most thrips walked up into the Y-tube within a few seconds, at which time the silicone air suction tubing was reconnected to the glass Y. The choice between clean or odour laden airflow was recorded when the thrips reached the far end of one arm and only those thrips that made the choice within 3 min were recorded. After every 5 thrips the Y-tube and Wheaton apparatus were rotated […] to avoid position effects. After 25 choices were recorded, the Y-tube and Wheaton apparatus were thoroughly cleaned with acetone (99.5%, BDH) and allowed to dry before repeating the experiment. Each compound and dilution was replicated 3 times.

Thrips tabaci = conditions: cited from earlier work
[2] = system: Frankliniella occidentalis; experiment: Greenhouse trials with water traps or yellow sticky traps; assay type: in vivo; conditions: 24 h, capsicum greenhouse, t-value in brackets in same cell
From the text: Greenhouse trials were undertaken using water traps similar to those used in the field trials (Example 2), or yellow sticky traps (Veg-Gro Supplies Ltd, Auckland) to examine the response of thrips to volatile compounds. The greenhouse, located in Auckland, is ≈88×200 m, constructed of glass, and is used to grow capsicum (Capsicum annuum var. Special, Fiesta, Boogie and Stirit). Water traps were placed 20 to 24 m apart within a row and 24 m apart between rows. There were 6 baited water traps for each compound tested and 6 water-only traps randomly positioned in a 6×2 grid in the greenhouse. Traps were positioned just above the crop canopy. Water traps (2 L containers, 16×16×8.5 cm) were assembled as described in Example 2 and left in the greenhouse for 24 h, after which time the containers were sealed for transport to a laboratory. Insects from each water trap were transferred to 5 ml glass tubes containing 75% ethanol within 24 h of collecting them from the greenhouse. Catches from each treatment were analysed under a stereomicroscope (100×) and the proportion of Frankliniella occidentalis was determined.
Yellow sticky traps (24.4×20 cm) were treated with a compound or water using a 30 ml spray mist dripulator (Arthur Holmes, Wellington) held 10 cm away from the sticky trap. Four sprays were applied to each side, coating the sticky trap in approximately 1 ml of water or compound. Sticky traps sprayed with the same treatment were separated using black metal foldback clips (19 mm, Celco), suspended within a cardboard box (29.5×22.3×30.2 cm), which was in turn sealed within a plastic bag for transport to the greenhouse. Traps were suspended in the greenhouse just above the crop canopy within 3 h after spraying, using the same layout as for the water traps (20 to 24 m apart within a row, 24 m between rows, in a 6×2 grid). After 24 h the traps were collected by wrapping each trap in plastic wrap for transport to the laboratory. The total number of thrips on the traps were counted using 10× magnification. Thrips were removed from the sticky traps using De-Solv-it® and Johnsons baby oil®. A subsample from each treatment was further analysed under a stereomicroscope (100×) and the proportion of Frankliniella occidentalis was determined.

[3] = system: Frankliniella occidentalis; conditions: literature; anisaldehyde with blue sticky or yellow water traps; WO 03/055309 Y-tube; cited from earlier work
Thrips hawaiiensis = conditions: field trials; cited from earlier work
Thrips coloratus = conditions: field trials; cited from earlier work
Thrips flavus = conditions: cited from earlier work

SMILES	Attractancy to Thrips obscuratus (literature) (Thrips obscuratus)	MAC (%) = Minimum Active Concentration to elicit a response from thrips (P < 0.05) ([1]; 1 µl undiluted or diluted in hexane) [%]	% Response: percentage of thrips to walk up odour-laden arm ([1]; same cell prints a '(t value)' in brackets)	Attractancy to Thrips tabaci (literature) (Thrips tabaci)	Average ratio of thrips caught relative to water treated traps ([2]; Water trap, around 66% of thrips caught were Frankliniella occidentalis)	Average ratio of thrips caught relative to water treated traps ([2]; Yellow sticky trap, about 1 ml sprayed, >95% of thrips caught were Frankliniella occidentalis)	Attractancy to Frankliniella occidentalis (literature) [3]	Attractancy to Thrips hawaiiensis (literature) (Thrips hawaiiensis)	Attractancy to Thrips coloratus (literature) (Thrips coloratus)	Attractancy to Thrips flavus (literature) (Thrips flavus)
CCOC(=O)c1cccnc1 [Ethyl nicotinate, reference compound]	potent attractant	0.01	60.0 (0.043) %	varied in its attractiveness	1 (0.1)	1.1 (0.4)	less attractive			
COC(=O)c1ccccc1N [methyl anthranilate]				not for Thrips tabaci				attractant	attractant	
CCOC(=O)c1ccccc1N [ethyl anthranilate]								attractant	attractant	attractant
